We go through eleven compounds from article PMC8502442 (Pharmacology Research & Perspectives, 2021).

Read-outs that look alike come from different tables or passages of the source.

The conditions of data set [1]: rat microdialysis, brain versus blood; cited from earlier work.
Data set [2] can be described thus: Rat pharmacokinetics following an IV single bolus. The note with it: plasma, 1 mg/kg. It counts as in vivo.
The conditions of data set [3]: male, Sprague-Dawley, rat, intravenous, n = 3, mean ± SD.
For data set [4] the following is noted: rat, cited from earlier work.
The conditions of data set [5]: humans; cited from earlier work.
A further data set relates to parental MDCK cell. As to conditions: parental MDCK cell assay; cited from earlier work.
Where [6] appears, read: K puu liver, ratio of unbound liver concentration to unbound blood concentration at steady state.
Where [7] appears, read: K puu muscle, ratio of unbound muscle concentration to unbound blood concentration at steady state.

In the case of `COc1ccc(CN(CCN(C)C)c2ccccn2)cc1` [Pyrilamine, pyrilamine], the “reported K puu,brain” value in data set [1] was 2.50. In data set [2], this compound had a Vd of 12.6 ± 1.6 L/kg, a clearance of 167 ± 24 mL/min/kg and a half-life of 2.16 ± 0.63 h.

On to `CC1COc2c(N3CCN(C)CC3)c(F)cc3c(=O)c(C(=O)O)cn1c23` (stereo not shown) [Ofloxacin, ofloxacin], for which, in data set [3] (setting [6]), the Kp was ~0.501. In addition, the Kp in data set [3] (setting [7]) amounted to 0.641 ± 0.206. Also, the “reported plasma CL” value in data set [4] (ref 20, 26, 36, 37) is 27.5 mL/min/kg. For the same compound, in data set [4] (ref 36), the “non-renal CL (biliary excretion + metabolism) as share of total CL” value was “about 45%”, the “renal CL” value is “about 15 ml/min/kg”, the “renal CL as share of total CL” value is 55% and the “total CL” value was 27.5 mL/min/kg.

Consider `COc1ccc([C@@H]2Sc3ccccc3N(CCN(C)C)C(=O)[C@@H]2OC(C)=O)cc1` [Diltiazem, diltiazem], for which the “reported plasma CL” value in data set [4] (ref 18, 19, 20, 21, 22, 23) is 90 mL/min/kg.

For `Cc1cc(=O)n(-c2ccccc2)n1C` [Antipyrine], the Kp in data set [3] (setting [6]) worked out at 0.932 ± 0.178; in data set [3] (setting [7]), 0.771 ± 0.215. Also, the “reported plasma CL” value in data set [4] (ref 24, 25, 26, 27) is 4.80 mL/min/kg.

As to `CC(C)NCC(O)COc1ccc(CC(N)=O)cc1` (stereo not shown) [Atenolol, atenolol], the “share eliminated via the kidneys” value in data set [5] is given as > 95%.

Consider `C[C@H]1O[C@@H](O[C@H]2[C@@H](O)C[C@H](O[C@H]3[C@@H](O)C[C@H](O[C@H]4CC[C@@]5(C)[C@H](CC[C@@H]6[C@@H]5C[C@@H](O)[C@]5(C)[C@@H](C7=CC(=O)OC7)CC[C@]65O)C4)O[C@@H]3C)O[C@@H]2C)C[C@H](O)[C@@H]1O` [Digoxin, digoxin], for which, in data set [4] (ref 20, 26, 36, 37), the “reported plasma CL” value is 17.3 mL/min/kg. Further, the “reported plasma CL” value in data set [4] (ref 24, 25, 26, 27) is 17.3 mL/min/kg. Moreover, in data set [4] (ref 26), the “non-renal CL (biliary excretion + hepatic metabolism) as share of total CL” value was 70%–80% and the “renal CL as share of total CL” value was 20%–30%.

On to `CC12CC3CC(C)(C1)CC(N)(C3)C2` [Memantine, memantine], for which, in data set [1], the “reported K puu,brain” value is reported as 1.80. In data set [2], the Vd is 7.36 ± 1.58 L/kg, the clearance was found to be 60.5 ± 9.9 mL/min/kg and the half-life is 1.72 ± 0.03 h. The Kp in data set [3] (setting [6]) was determined as 1.56. For the same compound, the Kp in data set [3] (setting [7]) turned out to be 2.13. In data set [4] (ref 18, 19, 20, 21, 22, 23), the “reported plasma CL” value was 69 mL/min/kg. In data set [4] (ref 47), the “plasma CL” value was “about 45 ml/min/kg” and the “renal CL” value is “about 13 ml/min/kg”.

As to `CC(C)NCC(O)COc1cccc2ccccc12` (stereo not shown) [Propranolol, propranolol], the P app in the data set on parental MDCK cell was 11 ×10⁻⁶ cm/s. For the same compound, the “reported plasma CL” value in data set [4] (ref 18, 19, 20, 21, 22, 23) was 70 to 90 mL/min/kg.

On to `NC(=O)N1c2ccccc2C=Cc2ccccc21` [Carbamazepine, carbamazepine], for which, in the data set with parental MDCK cell, the P app was 27.5 ×10⁻⁶ cm/s. Besides, the Kp in data set [3] (setting [6]) stood at 0.913 ± 0.169; in data set [3] (setting [7]), 1.02 ± 0.27. Moreover, in data set [4] (ref 24, 25, 26, 27), the “reported plasma CL” value was 15.0 mL/min/kg. The “N-glucuronide as share of the administered dose” value in data set [4] (ref 34) is on record as 20%–30%.

On to `NCC1(CC(=O)O)CCCCC1` [Gabapentin, gabapentin], for which, in data set [2], the Vd was determined as 0.451 ± 0.001 L/kg, the clearance stood at 1.53 ± 0.31 mL/min/kg and the half-life is 3.58 ± 0.87 h. For the same compound, the Kp in data set [3] (setting [6]) amounted to 2.23. In addition, the Kp in data set [3] (setting [7]) turned out to be 1.39 ± 0.51.

Consider `C=C[C@H]1C[N@@]2CC[C@H]1C[C@@H]2[C@@H](O)c1ccnc2ccc(OC)cc12` [Quinidine, quinidine], for which the figures for the Kp in data set [3] (setting [6]) and in data set [3] (setting [7]) were 0.677 ± 0.27 and 1.75 ± 0.64, respectively.

The Vd is the apparent volume that relates the amount in the body to the concentration in plasma or blood. A lower Vd goes with confinement near the circulation. A word on the clearance: it is a measure of how efficiently the substance is removed, as volume per time. Low readings indicate a low capacity for elimination, high ones a high capacity for elimination. For orientation: half-life means the time in which the quantity being followed falls by half. Low readings indicate rapid decline, high ones slow decline. What is called Kp is tissue or fluid exposure divided by exposure in the circulation.
